Reference: patent US20130131043A1, “PYRAZOLE COMPOUNDS AS JAK INHIBITORS” (priority 2010, published 2013)

Legend:
[1] = target: T1, JAK2 (Homo sapiens, UniProt O60674); assay: Kinobeads assay, JAK2 (competition binding in cell lysate, dot blot detection); conditions: mixed Molt4/Ramos lysate
T1 construct: endogenous in cells; host or cells: Molt4 (ATCC CRL-1582) and Ramos (ATCC CRL-1596) cell lysate; mixed Molt4/Ramos lysate 1:2
Description: (§1) The compounds of the present invention as described in the previous examples were tested in a Kinobeads™ assay as described for ZAP-70 (WO-A 2007/137867). Briefly, test compounds (at various concentrations) and the affinity matrix with the immobilized aminopyrido-pyrimidine ligand 24 were added to cell lysate aliquots and allowed to bind to the proteins in the lysate sample. After the incubation time the beads with captured proteins were separated from the lysate. Bound proteins were then eluted and the presence of JAK2 and JAK3 was detected and quantified using specific antibodies in a dot blot procedure and the Odyssey infrared detection system. Dose response curves for individual kinases were generated and IC50 values calculated. Kinobeads™ assays for ZAP-70 (WO-A 2007/137867) and for kinase selectivity profiling (WO-A 2006/134056) have been previously described.
(§2) 5×DP buffer: 250 mM Tris-HCl pH 7.4, 25% Glycerol, 7.5 mM MgCl2, 750 mM NaCl, 5 mM Na3VO4; filter the 5×DP buffer through a 0.22 μm filter and store in aliquots at −80° C. The 5×DP buffer is diluted with H2O to 1×DP buffer containing 1 mM DTT and 25 mM NaF.
(§3) Stock solutions of test compounds were prepared in DMSO. In a 96 well plate 30 μL solution of diluted test compounds at 5 mM in DMSO were prepared. Starting with this solution a 1:3 dilution series (9 steps) was prepared. For control experiments (no test compound) a buffer containing 2% DMSO was used.
(§4) Molt4 cells (ATCC catalogue number CRL-1582) and Ramos cells (ATCC catalogue number CRL-1596) were grown in 1 L Spinner flasks (Integra Biosciences, #182101) in suspension in RPMI 1640 medium (Invitrogen, #21875-034) supplemented with 10% Fetal Bovine Serum (Invitrogen) at a density between 0.15×10^6 and 1.2×10^6 cells/mL. Cells were harvested by centrifugation, washed once with 1×PBS buffer (Invitrogen, #14190-094) and cell pellets were frozen in liquid nitrogen and subsequently stored at −80° C. Cells were homogenized in a Potter S homogenizer in lysis buffer: 50 mM Tris-HCl, 0.8% NP40, 5% glycerol, 150 mM NaCl, 1.5 mM MgCl2, 25 mM NaF, 1 mM sodium vanadate, 1 mM DTT, pH 7.5. One complete EDTA-free tablet (protease inhibitor cocktail, Roche Diagnostics, 1873580) per 25 mL buffer was added. The material was dounced 10 times using a mechanized POTTER S, transferred to 50 mL falcon tubes, incubated for 30 minutes on ice and spun down for 10 minutes at 20,000 g at 4° C. (10,000 rpm in Sorvall SLA600, precooled). The supernatant was transferred to an ultracentrifuge (UZ)-polycarbonate tube (Beckmann, 355654) and spun for 1 hour at 100.000 g at 4° C. (33.500 rpm in Ti50.2, precooled). The supernatant was transferred again to a fresh 50 mL falcon tube, the protein concentration was determined by a Bradford assay (BioRad) and samples containing 50 mg of protein per aliquot were prepared. The samples were immediately used for experiments or frozen in liquid nitrogen and stored frozen at −80° C.
(§5) Cell lysate (approximately 50 mg protein per plate) was thawed in a water bath at room temperature and then stored on ice. To the thawed cell lysate 1×DP 0.8% NP40 buffer containing protease inhibitors (1 tablet for 25 mL buffer; EDTA-free protease inhibitor cocktail; Roche Diagnostics 1873580) was added in order to reach a final protein concentration of 10 mg/mL total protein. The diluted cell lysate was stored on ice. Mixed Molt4/Ramos lysate was prepared by combining one volume of Molt4 lysate and two volumes of Ramos lysate (ratio 1:2).
(§6) Plates were sealed and incubated for 3 hours in a cold room on a plate shaker (Heidolph tiramax 1000) at 750 rpm. Afterwards the plate was washed 3 times with 230 μL washing buffer (1×DP 0.4% NP40). The filter plate was placed on top of a collection plate (Greiner bio-one, PP-microplate 96 well V-shape, 65120) and the beads were then eluted with 20 μL of sample buffer (100 mM Tris, pH 7.4, 4% SDS, 0.00025% bromophenol blue, 20% glycerol, 50 mM DTT). […]

[2] = target: T2, JAK3 (Homo sapiens, UniProt P52333); assay: Kinobeads assay, JAK3 (competition binding in cell lysate, dot blot detection); conditions: mixed Molt4/Ramos lysate
T2 construct: endogenous in cells; host or cells: Molt4 (ATCC CRL-1582) and Ramos (ATCC CRL-1596) cell lysate; mixed Molt4/Ramos lysate 1:2
T2 sequence (P52333 1-1124): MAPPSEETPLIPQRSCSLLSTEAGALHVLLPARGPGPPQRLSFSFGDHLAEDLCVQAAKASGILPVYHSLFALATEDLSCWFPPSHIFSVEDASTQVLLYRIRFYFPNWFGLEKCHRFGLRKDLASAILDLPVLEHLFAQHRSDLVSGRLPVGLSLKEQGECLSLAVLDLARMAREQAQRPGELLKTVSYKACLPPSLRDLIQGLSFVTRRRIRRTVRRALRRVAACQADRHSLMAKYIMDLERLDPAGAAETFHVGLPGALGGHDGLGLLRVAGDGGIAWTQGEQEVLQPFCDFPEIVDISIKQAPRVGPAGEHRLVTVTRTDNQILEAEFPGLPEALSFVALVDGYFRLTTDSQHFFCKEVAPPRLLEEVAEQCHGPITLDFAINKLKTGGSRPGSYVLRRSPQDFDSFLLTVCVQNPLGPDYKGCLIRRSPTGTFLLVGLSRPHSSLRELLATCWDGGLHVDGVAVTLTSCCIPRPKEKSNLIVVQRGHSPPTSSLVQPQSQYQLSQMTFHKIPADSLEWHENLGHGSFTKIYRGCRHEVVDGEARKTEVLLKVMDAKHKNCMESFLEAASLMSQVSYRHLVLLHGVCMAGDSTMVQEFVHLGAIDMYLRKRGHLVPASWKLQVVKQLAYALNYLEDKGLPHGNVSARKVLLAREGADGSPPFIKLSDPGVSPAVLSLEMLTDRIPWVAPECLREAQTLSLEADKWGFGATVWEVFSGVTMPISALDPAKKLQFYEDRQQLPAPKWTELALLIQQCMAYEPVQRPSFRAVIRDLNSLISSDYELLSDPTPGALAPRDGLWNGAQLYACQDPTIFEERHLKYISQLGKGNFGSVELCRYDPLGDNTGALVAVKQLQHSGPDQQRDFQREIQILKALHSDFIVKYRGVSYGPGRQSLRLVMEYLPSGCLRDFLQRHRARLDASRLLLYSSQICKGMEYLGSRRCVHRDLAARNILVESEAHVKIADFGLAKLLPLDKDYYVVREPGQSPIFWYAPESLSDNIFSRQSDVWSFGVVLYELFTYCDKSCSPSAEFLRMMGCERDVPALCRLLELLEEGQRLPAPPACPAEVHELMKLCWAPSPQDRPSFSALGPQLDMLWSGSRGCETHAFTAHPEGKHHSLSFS
Description: as §1, §2, §3, §4, §5, §6

T1 sequence (O60674 whole entry): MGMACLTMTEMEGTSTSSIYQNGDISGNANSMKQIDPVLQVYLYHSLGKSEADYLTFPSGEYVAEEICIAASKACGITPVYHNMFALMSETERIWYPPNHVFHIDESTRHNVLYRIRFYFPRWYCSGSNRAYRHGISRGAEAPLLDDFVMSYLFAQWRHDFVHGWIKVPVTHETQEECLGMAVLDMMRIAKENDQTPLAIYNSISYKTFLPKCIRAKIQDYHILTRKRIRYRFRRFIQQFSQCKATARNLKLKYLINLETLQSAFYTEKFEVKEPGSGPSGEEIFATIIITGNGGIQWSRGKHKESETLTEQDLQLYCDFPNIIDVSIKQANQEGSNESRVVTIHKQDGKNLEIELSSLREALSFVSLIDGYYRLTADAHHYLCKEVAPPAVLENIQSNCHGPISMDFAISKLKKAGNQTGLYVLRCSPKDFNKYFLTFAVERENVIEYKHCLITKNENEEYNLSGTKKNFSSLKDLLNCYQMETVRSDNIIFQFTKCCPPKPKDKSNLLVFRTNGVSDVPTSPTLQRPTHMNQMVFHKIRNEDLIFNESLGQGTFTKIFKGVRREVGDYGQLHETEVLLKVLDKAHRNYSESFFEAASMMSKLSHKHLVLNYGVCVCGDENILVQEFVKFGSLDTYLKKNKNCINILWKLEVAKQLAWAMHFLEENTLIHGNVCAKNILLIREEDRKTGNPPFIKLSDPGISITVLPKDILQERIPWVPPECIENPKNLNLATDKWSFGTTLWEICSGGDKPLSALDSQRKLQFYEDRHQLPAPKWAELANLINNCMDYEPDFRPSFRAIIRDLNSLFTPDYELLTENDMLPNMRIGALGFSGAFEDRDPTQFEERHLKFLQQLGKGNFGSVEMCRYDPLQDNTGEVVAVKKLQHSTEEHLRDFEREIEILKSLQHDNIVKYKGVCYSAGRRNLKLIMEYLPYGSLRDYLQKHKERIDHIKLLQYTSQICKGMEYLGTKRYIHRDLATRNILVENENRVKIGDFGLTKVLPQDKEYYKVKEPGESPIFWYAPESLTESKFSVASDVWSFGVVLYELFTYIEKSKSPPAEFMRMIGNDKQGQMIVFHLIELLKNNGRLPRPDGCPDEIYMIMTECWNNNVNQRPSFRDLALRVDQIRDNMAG

| Structure (SMILES) | IC50 [1] | IC50 [2] |
| --- | --- | --- |
| CC1CCC(n2ncc3cnc(Nc4cnn(C)c4)nc32)C1 (mixture of isomers) [Example 15, N-(1-Methyl-1H-pyrazol-4-yl)-1-(3-methylcyclopentyl)-1H-pyrazolo[3,4-d]pyrimidin-6-amine] | 1 to 10 µM | 0.1 to 1 µM |
| C[C@H]1CCCC[C@@H]1n1ncc2cnc(Nc3cnn(C)c3)nc21 (racemic) [Example 7, Rac-trans-N-(1-methyl-1H-pyrazol-4-yl)-1-(2-methylcyclohexyl)-1H-pyrazolo[3,4-d]pyrimidin-6-amine] | 1 to 10 µM | < 0.1 µM |
| C[C@H]1CCCC[C@H]1n1ncc2cnc(Nc3cnn(C)c3)nc21 (racemic) [Example 11, Rac-cis-N-(1-methyl-1H-pyrazol-4-yl)-1-(2-methylcyclohexyl)-1H-pyrazolo[3,4-d]pyrimidin-6-amine] | 1 to 10 µM | 0.1 to 1 µM |
| C[C@H]1CCC[C@H](n2ncc3cnc(Nc4cnn(C)c4)nc32)C1 (racemic) [Example 19, Rac-trans-N-(1-methyl-1H-pyrazol-4-yl)-1-(3-methylcyclohexyl)-1H-pyrazolo[3,4-d]pyrimidin-6-amine] | 1 to 10 µM | < 0.1 µM |
| C[C@H]1CCCC[C@@H]1n1ncc2cnc(Nc3cnn(CCO)c3)nc21 (racemic) [Example 50, Rac-trans-2-(4-((1-(2-methylcyclohexyl)-1H-pyrazolo[3,4-d]pyrimidin-6-yl)amino)-1H-pyrazol-1-yl)ethanol] | 1 to 10 µM | < 0.1 µM |
| Cn1cc(Nc2ncc3cnn(CC4CCCN(S(C)(=O)=O)C4)c3n2)cn1 (stereo not drawn) [Example 1] | 1 to 10 µM | < 0.1 µM |
| Cn1cc(Nc2ncc3cnn(CCCNS(C)(=O)=O)c3n2)cn1 [Example 2, N-(3-(6-(1-methyl-1H-pyrazol-4-ylamino)-1H-pyrazolo[3,4-d]pyrimidin-1-yl)propyl)methanesulfonamide] | 1 to 10 µM | 0.1 to 1 µM |
| Cn1cc(Nc2ncc3cnn(C4CCN(S(C)(=O)=O)CC4)c3n2)cn1 [Example 3, N-(1-methyl-1H-pyrazol-4-yl)-1-(1-(methylsulfonyl)piperidin-4-yl)-1H-pyrazolo[3,4-d]pyrimidin-6-amine] | 1 to 10 µM | 0.1 to 1 µM |
| CS(=O)(=O)N1CCCC(Cn2ncc3cnc(Nc4cnn(CC(F)F)c4)nc32)C1 (stereo not drawn) [Example 4, N-(1-(2,2-difluoroethyl)-1H-pyrazol-4-yl)-1-((1-(methylsulfonyl)piperidin-3-yl)methyl)-1H-pyrazolo[3,4-d]pyrimidin-6-amine] | 1 to 10 µM | < 0.1 µM |
| Cn1cc(Nc2ncc3cnn(CC4CCCNC4)c3n2)cn1 (stereo not drawn) [Example 5, N-(1-methyl-1H-pyrazol-4-yl)-1-(piperidin-3-ylmethyl)-1H-pyrazolo[3,4-d]pyrimidin-6-amine] | 1 to 10 µM | 0.1 to 1 µM |
| CN1CCCC(Cn2ncc3cnc(Nc4cnn(C)c4)nc32)C1 (stereo not drawn) [Example 6, N-(1-methyl-1H-pyrazol-4-yl)-1-((1-methylpiperidin-3-yl)methyl)-1H-pyrazolo[3,4-d]pyrimidin-6-amine] | 1 to 10 µM | < 0.1 µM |
| Cn1cc(Nc2ncc3cnn(C4CCCCC4)c3n2)cn1 [Example 8, 1-cyclohexyl-N-(1-methyl-1H-pyrazol-4-yl)-1H-pyrazolo[3,4-d]pyrimidin-6-amine] | > 10 µM | 0.1 to 1 µM |
| Cn1cc(Nc2ncc3cnn(C4CCOCC4)c3n2)cn1 [Example 9, N-(1-methyl-1H-pyrazol-4-yl)-1-(tetrahydro-2H-pyran-4-yl)-1H-pyrazolo[3,4-d]pyrimidin-6-amine] | > 10 µM | 0.1 to 1 µM |
| Cn1cc(Nc2ncc3cnn(C4CCCNC4)c3n2)cn1 (stereo not drawn) [Example 10, N-(1-methyl-1H-pyrazol-4-yl)-1-(piperidin-3-yl)-1H-pyrazolo[3,4-d]pyrimidin-6-amine] | > 10 µM | 1 to 10 µM |
| Cn1cc(Nc2ncc3cnn(C4CCNCC4)c3n2)cn1 [Example 12, N-(1-methyl-1H-pyrazol-4-yl)-1-(piperidin-4-yl)-1H-pyrazolo[3,4-d]pyrimidin-6-amine] | > 10 µM | 1 to 10 µM |
| CC1CCCC(n2ncc3cnc(Nc4cnn(C)c4)nc32)C1 (stereo not drawn) [Example 13, N-(1-methyl-1H-pyrazol-4-yl)-1-(3-methylcyclohexyl)-1H-pyrazolo[3,4-d]pyrimidin-6-amine] | > 10 µM | 0.1 to 1 µM |
| CC1CCCC1n1ncc2cnc(Nc3cnn(C)c3)nc21 (stereo not drawn) [Example 14, N-(1-Methyl-1H-pyrazol-4-yl)-1-(2-methylcyclopentyl)-1H-pyrazolo[3,4-d]pyrimidin-6-amine] | > 10 µM | 0.1 to 1 µM |
| Cn1cc(Nc2ncc3cnn(CC4CCCCC4)c3n2)cn1 [Example 16, 1-(Cyclohexylmethyl)-N-(1-methyl-M-pyrazol-4-yl)-1H-pyrazolo[3,4-d]pyrimidin-6-amine] | 1 to 10 µM | < 0.1 µM |
| CC(C1CCCCC1)n1ncc2cnc(Nc3cnn(C)c3)nc21 (stereo not drawn) [Example 17, 1-(1-Cyclohexylethyl)-N-(1-methyl-M-pyrazol-4-yl)-1H-pyrazolo[3,4-d]pyrimidin-6-amine] | > 10 µM | 0.1 to 1 µM |
| CCC(C1CCCCC1)n1ncc2cnc(Nc3cnn(C)c3)nc21 (stereo not drawn) [Example 18, 1-(1-Cyclohexylpropyl)-N-(1-methyl-M-pyrazol-4-yl)-1H-pyrazolo[3,4-c]pyrimidin-6-amine] | > 10 µM | 0.1 to 1 µM |
| Cn1cc(Nc2ncc3cnn(C4CCCCCC4)c3n2)cn1 [Example 20, 1-Cycloheptyl-N-(1-methyl-1H-pyrazol-4-yl)-1H-pyrazolo[3,4-d]pyrimidin-6-amine] | 1 to 10 µM | < 0.1 µM |
